Test results: patent US9492405B2, “Use of fenoterol and fenoterol analogues in the treatment of glioblastomas and astrocytomas” (The United States of America, as represented by the …, priority 2010, dated 2016)
Values joined by “and” are separate entries in the source; they are usually repeats but may differ in a detail not shown here. Equal values may be shown once.

How the values were obtained:
β2-AR = β2-AR (Homo sapiens (Human), UniProt P07550); test: β2-AR mediated cAMP accumulation in HEK-β2-AR cells; type: cell-based; conditions: read-out: Stimulation of cAMP Accumulation HEK-β2-AR EC50cAMP
Experimental: HEK-β2-AR, 1321N1 or U87MG cells were plated in 96-well plates. When the cells reached confluence, the medium was removed and each well rinsed with 0.1 mL of Krebs-HEPES buffer (130 mM NaCl, 4.8 mM KCl, 1.2 mM KH2PO4, 1.3 mM CaCl2, 1.2 mM MgSO4, 25 mM HEPES, and 10 mM glucose, pH 7.3). The plates were preincubated for 10 minutes at room temperature with buffer alone; then test compound diluted in buffer was added to the wells for quadruplicate determinations. The plates were incubated for an additional 10 minutes with the test compound. After incubation, the medium was removed and 0.1 mL of 0.5 M formic acid was added. After a minimum of 1 hour, the supernatant was removed and lyophilized. cAMP was quantitated using the protein kinase binding assay of Gilman.

1321N1 cells [1] = test: Inhibition of mitogenesis, [3H]-thymidine incorporation in 1321N1 cells; type: cell-based, human
rat cardiomyocyte = test: Rat cardiomyocyte contractility model; type: cell-based
in vivo = conditions: rat; for AUC / Vd / clearance / half-life / concentration at 5 min / concentration at 15 min / concentration at 30 min / concentration at 60 min / concentration at 120 min / concentration at 240 min / concentration at 300 min / concentration at 360 min: male, Sprague-Dawley, plasma, iv, 5 mg/kg; for concentration at 5 min / concentration at 15 min / concentration at 30 min / concentration at 60 min / concentration at 120 min / concentration at 240 min / concentration at 300 min / concentration at 360 min / K12 / K21 / Individual plasma concentration / V1 / K10 / V2 / Alpha / Beta / A / B / Plasma concentration, Average: IV 5 mg/kg; for V1: central compartment; for K10: elimination rate; for V2: tissue compartment; for Alpha / Beta / A: two-compartment open model; for A: zero time intercept alpha phase; for B: zero time intercept beta phase
Experimental: Dose calculations (mg/kg) were based on the individual body weight measured on the day of treatment. Study duration for pharmacokinetic studies was 6 hours. […] Urine was collected for 0-6 hours and 6 to 24 hours from 3 rats in each treatment group.
In the two-compartment model, the drug distributes into two compartments, the central compartment and the tissue, or peripheral compartment. The central compartment represents the blood, extracellular fluid, and highly perfused tissues. The drug distributes rapidly and uniformly in the central compartment. A second compartment, known as the tissue or peripheral compartment, contains tissues in which the drug equilibrates more slowly. Drug transfer between the two compartments is assumed to take place by first-order processes.
The following abbreviations are utilized in Table 4 below: alpha—macro rate constant associated with the distribution phase; beta—macro rate constant associated with the elimination phase; A, B—zero time intercept associated with the alpha phase and beta phase, respectively; AUC—area under the curve; T1/2 (K10)—half-life associated with the rate constant K10; K10—elimination rate—rate at which the drug leaves the system from the central compartment; K12—rate at which drug enters tissue compartment from the central compartment; K21—rate at which drug enters central compartment from tissue compartment; V1—volume of distribution of the central compartment; V2—volume of distribution of the tissue compartment; Vss—volume of distribution at steady state; and Cl—clearance.

[2] = Brain-to-plasma distribution of [3H]-(R,R)-methoxyfenoterol after single IV dose; type: in vivo; conditions: rat, IV 5 mg/kg; for Brain level, Mean / Percent of Dose in Brain, Mean / Plasma level, Mean: n=3
Experimental: An overview of the research study design for evaluating the brain-to-plasma distribution of [^3H]
(specific activity 57 Ci/mmol); vehicle was sterile saline, 0.9% sodium chloride, USP. Dose formulations were prepared on the day of the study. The amount of radioactivity in the dose formulation was determined by liquid scintillation. The study lasted for an hour and radioactivity levels in plasma and brain tissue were evaluated at the conclusion of the study. Approximately 5 mls of whole blood was collected. Blood samples were collected via cardiac puncture, transferred into a tube containing K3EDTA as the anticoagulant and kept on wet ice until processed to plasma. To generate plasma, samples were centrifuged within 15 minutes of collection at 2,500 RPM for 15 minutes at room temperature. Plasma was divided equally into three labeled cryovials and stored on ample dry ice until transferred to a freezer set at ≦−20° C. for storage until analysis. Duplicate aliquots were weighed and then combined with scintillation cocktail. The [^3H] radioactivity was determined on a liquid scintillation counter. Brain samples were snap frozen in liquid nitrogen and stored at ≦−70° C. until analysis. Whole brain tissue was homogenized and the weight of the homogenate was determined. Duplicate aliquots from the homogenate were weighed, solubilized and then combined with scintillation cocktail. The [^3H] radioactivity was determined on a liquid scintillation counter.

1321N1 cells [3] = test: Cell cycle distribution by flow cytometry in 1321N1 cells; conditions: for % Phase Distribution G1 / % Phase Distribution G2 / % Phase Distribution S: 20 hours, 1321N1

## CC[C@@H](Cc1ccc(O)cc1)NC[C@H](O)c1cc(O)cc(O)c1 [(R,S)-ethylfenoterol, (R,S)-(−)-ethylfenoterol]
β2-AR
  EC50: 16.6 nM

## COc1ccc(C[C@@H](C)N(C[C@H](O)c2cc(O)cc(O)c2)C(C)C)cc1 [4-methoxy-isopropylfenoterol]
1321N1 cells [1]; [3H]-thymidine incorporation, 1321N1 cells, mean ± SD, n=4
  IC50: 946 nM
Rat cardiomyocyte
  EC50: > 10000 nM

## C[C@@H](Cc1cccc2ccccc12)NC[C@H](O)c1cc(O)cc(O)c1.O=C(O)/C=C/C(=O)O [(R,S)-5, (R,S)-(−)-5-{1-hydroxy-2-[1-methyl-2-(1-naphthyl)ethylamino]ethyl}-1,3-benzenediol fumarate]
In vivo
  AUC: 1950 ng·h/mL
  Vd: 2.2 L
  clearance: 12.7 mL/min
  half-life: 18.1 min
  K12: 0.1213 min⁻¹
  K21: 0.0214 min⁻¹
  V1: 330.83 mL
  K10: 0.0383 min⁻¹
  V2: 1872.92 mL
  Alpha: 0.1764 min⁻¹
  Beta: 0.0046 min⁻¹
  A: 4.0365 µg/mL
  B: 0.4372 µg/mL
In vivo; Individual plasma concentration, 5 min, individual rats
  concentration at 5 min: 2520 ng/mL
In vivo; Individual plasma concentration, 15 min, individual rats
  concentration at 15 min: 850 ng/mL
In vivo; Individual plasma concentration, 30 min, individual rats
  concentration at 30 min: 490 ng/mL
In vivo; Individual plasma concentration, 60 min, individual rats
  concentration at 60 min: 360 ng/mL
In vivo; Individual plasma concentration, 120 min, individual rats
  concentration at 120 min: 250 ng/mL
In vivo; Individual plasma concentration, 240 min, individual rats
  concentration at 240 min: 110 ng/mL
In vivo; Individual plasma concentration, 300 min, individual rats
  concentration at 300 min: 100 ng/mL
In vivo; Individual plasma concentration, 360 min, individual rats
  concentration at 360 min: 80 ng/mL
In vivo; Plasma concentration, Average, 5 min
  concentration at 5 min: 2110 ng/mL
In vivo; Plasma concentration, Average, 15 min
  concentration at 15 min: 680 ng/mL
In vivo; Plasma concentration, Average, 30 min
  concentration at 30 min: 430 ng/mL
In vivo; Plasma concentration, Average, 60 min
  concentration at 60 min: 340 ng/mL
In vivo; Plasma concentration, Average, 120 min
  concentration at 120 min: 240 ng/mL
In vivo; Plasma concentration, Average, 240 min
  concentration at 240 min: 120 ng/mL
In vivo; Plasma concentration, Average, 300 min
  concentration at 300 min: 110 ng/mL
In vivo; Plasma concentration, Average, 360 min
  concentration at 360 min: 90 ng/mL
In vivo; 240 min, individual rats, listed as (R,S)-naphthylfenoterol, fumarate
  Individual plasma concentration: 0.11 ug/ml (2×) and 0.13 ug/ml (2×)
In vivo; 300 min, individual rats, listed as (R,S)-naphthylfenoterol, fumarate
  Individual plasma concentration: 0.11 µg/mL

## Cc1ccc(OCC(O)C(C)NC(C)C)c2c1CCC2 (stereo not shown) [ICI 118-551, reference compound]
1321N1 cells [1]; competitive inhibition of (R,R)-fenoterol effect on [3H]-thymidine incorporation, 1321N1
  pA2: 8.9

## COc1ccc(C[C@@H](C)NC[C@H](O)c2cc(O)cc(O)c2)cc1.Cl [[^3H]-(R,R)-methoxyfenoterol]
[2]
  decrease of plasma levels from 5 to 60 minutes: 62%
[2]; 5 min
  Brain level, Individual: 1.00 μg-equiv/g and 0.80 μg-equiv/g and 0.95 μg-equiv/g
  Percent of Dose in Brain, Individual: 0.15% (2×) and 0.12%
  Plasma level, Individual: 3.30 μg-equiv/ml and 3.08 μg-equiv/ml and 3.37 μg-equiv/ml
  Brain level, Mean: 0.92±0.10 μg-equiv/g and 0.92 μg-equiv/g
  Percent of Dose in Brain, Mean: 0.14%
  Plasma level, Mean: 3.25±0.15 μg-equiv/ml and 3.25 μg-equiv/ml
[2]; 15 min
  Brain level, Individual: 0.36 μg-equiv/g and 1.06 μg-equiv/g and 0.99 μg-equiv/g
  Percent of Dose in Brain, Individual: 0.06% and 0.16% and 0.15%
  Plasma level, Individual: 0.89 μg-equiv/ml and 2.29 μg-equiv/ml and 2.19 μg-equiv/ml
  Brain level, Mean: 0.80 μg-equiv/g
  Percent of Dose in Brain, Mean: 0.12%
  Plasma level, Mean: 1.79 μg-equiv/ml
[2]; 30 min
  Brain level, Individual: 0.22 μg-equiv/g and 1.00 μg-equiv/g and 0.95 μg-equiv/g
  Percent of Dose in Brain, Individual: 0.03% and 0.15% (2×)
  Plasma level, Individual: 0.63 μg-equiv/ml and 1.97 μg-equiv/ml and 2.00 μg-equiv/ml
  Brain level, Mean: 0.72 μg-equiv/g
  Percent of Dose in Brain, Mean: 0.11%
  Plasma level, Mean: 1.53 μg-equiv/ml
[2]; 60 min
  Brain level, Individual: 0.44 μg-equiv/g and 0.53 μg-equiv/g and 1.12 μg-equiv/g
  Percent of Dose in Brain, Individual: 0.06% and 0.09% and 0.17%
  Plasma level, Individual: 0.97 μg-equiv/ml and 1.01 μg-equiv/ml and 1.73 μg-equiv/ml
  Brain level, Mean: 0.70±0.37 μg-equiv/g and 0.70 μg-equiv/g
  Percent of Dose in Brain, Mean: 0.11%
  Plasma level, Mean: 1.24±0.43 μg-equiv/ml and 1.24 μg-equiv/ml
[2]; no more than
  percent dose found in the brain, any given animal: no more than 0.17%

## CCC(Cc1ccc(OC)cc1)NCC(O)c1cc(O)cc(O)c1 (stereo not shown) [4-methoxy-ethylfenoterol]
Rat cardiomyocyte
  EC50: > 10000 nM

## CC[C@H](Cc1ccc(O)cc1)NC[C@H](O)c1cc(O)cc(O)c1 [(R,R)-ethylfenoterol, (R,R)-(−)-ethylfenoterol]
β2-AR
  EC50: 2.8 nM

## C[C@H](Cc1ccc(O)cc1)NC[C@H](O)c1cc(O)cc(O)c1 [(R,R)-1, (R,R)-(−)-Fenoterol]
In vivo
  AUC: 495 ng·h/mL
  Vd: 1.91 L
  clearance: 51.5 mL/min
  half-life: 12.2 min
  K12: 0.0119 min⁻¹
  K21: 0.0107 min⁻¹
  V1: 906.5 mL
  K10: 0.0568 min⁻¹
  V2: 1005.20 mL
  Alpha: 0.0710 min⁻¹
  Beta: 0.0086 min⁻¹
  A: 1.6300 µg/mL
  B: 0.0577 µg/mL
In vivo; 5 min
  Plasma concentration, Average: 1340 ng/mL
In vivo; 5 min, individual rats
  Individual plasma concentration: 1.34 µg/mL
In vivo; 15 min
  Plasma concentration, Average: 360 ng/mL
In vivo; 15 min, individual rats
  Individual plasma concentration: 0.36 µg/mL
In vivo; 30 min
  Plasma concentration, Average: 340 ng/mL
In vivo; 30 min, individual rats
  Individual plasma concentration: 0.17 µg/mL and 0.50 µg/mL
In vivo; 60 min
  Plasma concentration, Average: 50 ng/mL
In vivo; 60 min, individual rats
  Individual plasma concentration: 0.05 µg/mL
In vivo; 120 min
  Plasma concentration, Average: 20 ng/mL
In vivo; 120 min, individual rats
  Individual plasma concentration: 0.03 µg/mL and 0.01 µg/mL
In vivo; 240 min
  Plasma concentration, Average: 10 ng/mL
In vivo; 300 min
  Plasma concentration, Average: 5 ng/mL
In vivo; 300 min, individual rats
  Individual plasma concentration: 0.005 µg/mL
In vivo; 360 min
  Plasma concentration, Average: 60 ng/mL
In vivo; 360 min, individual rats
  Individual plasma concentration: 0.08 µg/mL and 0.03 µg/mL
1321N1 cells [1]; inhibition of [3H]thymidine incorporation, FIG. 7A
  times more potent than (S,S)-fenoterol and forskolin: 1000 times
1321N1 cells [3]; 0.1 nM
  % Phase Distribution G1: 60.6%
  % Phase Distribution G2: 1.8%
  % Phase Distribution S: 37.6%
1321N1 cells [3]; 10.0 nM
  % Phase Distribution G1: 76.0%
  % Phase Distribution G2: 2.1%
  % Phase Distribution S: 21.9%
1321N1 cells [3]; 1000 nM
  % Phase Distribution G1: 74.7%
  % Phase Distribution G2: 0.7%
  % Phase Distribution S: 24.6%
1321N1 cells [3]; 1321N1, doses as low as
  dose arresting the cell cycle: ≤ 0.1 nM
1321N1 cells [3]; all tested concentrations, controls […]
  proportion of cells in G1 phase in treated cells: 60.6-76%
